Test results: patent US7250505B1, “Isolation and expression of a disabled protein gene mDab1 and methods” (Fred Hutchinson Cancer Research Center, priority 1997, dated 2007)
One block for each compound: values may come before it. No end group written: not given here.

Columns and labels:
[1] = target: T1, mDab1 PTB (Mus musculus, UniProt P97318); assay: Competition of GST-mDab1 PTB binding to LUVs containing PtdIns4,5P2 by inositol phosphates
T1 construct: the region corresponding to the mDab1 PTB, residues 29 to 197; made in house; host or cells: Escherichia coli strain TG-1
T1 sequence (P97318 29-197): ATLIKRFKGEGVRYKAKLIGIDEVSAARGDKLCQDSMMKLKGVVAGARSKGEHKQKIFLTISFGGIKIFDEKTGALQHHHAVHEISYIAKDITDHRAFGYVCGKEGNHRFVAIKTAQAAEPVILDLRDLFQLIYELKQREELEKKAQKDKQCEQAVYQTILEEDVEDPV
Experimental: GST fusion proteins containing the Shc or mDab1 PTB domain were compared for their ability to bind LUVs that contained phosphotidylisositol 4,5 P2 (PtdIns4,5P2), phosphatidylserine (PtdSer) and phosphatidylethanolamine (PtdEth). Methods for the production of LUVs and assays for binding to Shc phosphotyrosine-binding domains can found in Ravichandran, et al., Mol. Cell. Biol. 17:5540-5549 (1997) which is incorporated herein by reference. After the fusion proteins and a GST control were incubated with the LUVs the reactions were centrifuged and the presence of the fusion proteins were detected by SDS PAGE and Western blotting with antibodies to GST as described above. GST-Shc PTB and GST-mDab1 PTB fusion proteins were found in the high speed pellet fraction in the presence of but not in the absence of LUVs. While the GST fusion protein control was found in the high speed supernatant in the presence of absence of the LUVs.
The specificity of mDab1 PTB binding to phospholipids was also determined. For these studies LUVs were prepared containing equal quantities of PtdSer, phosphatidylcholine (PtdCho) and Ptd Eth, and 0 or 5% by weight of PtdIns4P, PtdIns4,5P2, or PdtIns3,4,5P3. This corresponded to approximately 7.5 μM phosphoinositide in the outer leaflet of the lipid bilayer. Detection of binding to the LUVs was determined as described above.
mDab1 PTB binding to LUVs containing phosphoinositides in the presence of various phosphorylated isomers of inositol was also examined to determine whether the binding of mDab1 PTB to phosphoinositides was specific or was the result of a strong affinity for strongly anionic phospholipids. […] Binding was competed with D-Ins1,4,5P3, but not by L-Ins1, 4,5P3.

[2] = target: T1, mDab1 PTB; assay: GST-mDab1 PTB binding of tyrosine phosphorylated proteins from E13 mouse head lysates in the presence of phosphoamino acid competitors; settings: competitor in binding buffer (50 mM)
Experimental: Lysates from 293T cells transfected with retroviral vectors encoding mDab555 alone; Src 527F alone; Src527F and mDab555 together; or Src527F and mDab1 98/200F, which is described in more detail below, were either bound to immobilized GST fusions proteins or were immunoprecipitated with anti-mDab1 or preimmune antibodies. Binding assays and analysis were carried out essentially as described for immunoprecipitations with 5 μg of GST fusion protein immobilized on glutathione agarose beads. Phenyl phosphate and phosphoserine were used at 50 mM for competition experiments. After washing, mDab1 bound to the immobilized SH2 domains was detected by immunoblotting. […] The Abl and Csk SH2 domains do form high affinity complexes with other tyrosine phosphorylated molecules however (Sabe et al., Proc. Natl. Acad. Sci. USA 91:3984-3988 (1994); Duyster et al., ibid. (1995)).
To examine whether the mDab1 PTB binds proteins that are tyrosine phosphorylated during neural development, a GST fusion protein containing the mDab1 PTB, a mutant mDab1 PTB in which Arg 56 was changed to Glu (mDab1 56E) or GST alone. was incubated with lysates from E13 mouse heads. Bound proteins were eluted, resolved and immunoblotted with anti-phosphotyrosine antibodies. The mDab1 PTB bound tyrosine phosphorylated proteins of 200, 120, 50-65 and 40 kDa.
To test whether the binding of proteins to the mDab1 PTB is phosphotyrosine dependent, binding experiments were done in the presence of the phosphotyrosine analog phenylphosphate. The assays was conducted as described above and phenylphosphate or phosphoserine were included in the binding buffer to investigate binding specificity. Proteins were eluted and analyzed as described above. […] However the binding of the 50-65 kDa proteins was not affected by either competitor.

[3] = target: T2, mDab1 PTB domain (Mus musculus, UniProt P97318); assay: Binding of radioactively labeled GST-mDab1 PTB domain fusion protein to synthetic peptides in a grid array on cellulose; settings: 15 to 17 residue peptides with NPXY motifs on cellulose sheet
T2 construct: the region corresponding to the mDab1 PTB, residues 29 to 197; made in house; host or cells: Escherichia coli strain TG-1
T2 sequence (P97318 29-197): T1 sequence (P97318 29-197)
Experimental: The ability of the mDab1 PTB domain to interact directly with synthetic peptides based on the sequences identified in the two-hybrid screen was tested to identify the optimal sequence for mDab1 PTB domain binding. […] The purified, radioactive fusion protein was then incubated with a sheet of cellulose paper onto which different 15 to 17 residue synthetic peptides had been synthesized in a grid array (Niebuhr, et al., EMBO J. 16:5433-5444 (1997), incorporated herein by reference). Each sheet contained up to 100 different peptide sequences. After incubation, the sheet was washed and exposed to film, and bound PTB domain fusion protein was quantified. […] The mDab1 PTB domain was tested against peptides containing NPXY motifs from APP, the APP relatives APLP1 and APLP2, LRP, the LRP-related LDL receptor, Ship, and known ligands for the Shc and IRS-1 PTB domains, namely the EGF receptor, HER3 receptor, NGF receptor (TrkA), and insulin receptor. The mDab1 PTB domain was also tested against peptide motifs with phosphotyrosine in place of the tyrosine of the NPXY sequence (i.e. NPXpY peptides). The amount of radioactivity associated with each peptide was quantified with a PhosphorImager (Molecular Dynamics), and depicted as a percentage of that which associated with the APP peptide.
To determine which residues in the APP sequence are involved in the interaction with the mDab1 PTB, an array of peptides based on the APP sequence with alanine substituted at each position in turn were synthesized. The ability of each peptide to bind to the PTB domain was compared to wild-type. […] Only the side chains of residues on the amino-terminal side of the NPXY motif appear to influence the strength of the interaction.
To determine the features of the APP peptide that were recognized by the mDab1 PTB domain, all nineteen amino acids, except cysteine, were substituted at several positions. In all cases the mDab1 PTB domain bound better to the wild-type APP sequence than to any altered sequence. Most substitutions of residues Gly-6, Tyr-5, Asn-3, Pro-2 and Tyr-0 inhibited PTB domain binding by greater than 80%. […] For example, the significant binding of the p150 Ship, LRP, and LDL receptor peptides implies that replacement of Tyr-5 with phenylalanine is permitted provided other changes are also made.

Compound: O=P(O)(O)O[C@@H]1[C@H](O)[C@H](O)[C@@H](OP(=O)(O)O)[C@H](OP(=O)(O)O)[C@H]1O [D-Ins1,4,5P3]
competition of GST-mDab1 PTB binding to LUVs containing PtdIns4,5P2 ([1]; competitor at 30 μM): weak competition
competition of GST-mDab1 PTB binding to LUVs containing PtdIns4,5P2 ([1]; competitor at 100 μM): competed

Compound: O=P(O)(O)O[C@@H]1[C@@H](O)[C@H](OP(=O)(O)O)[C@@H](OP(=O)(O)O)[C@H](O)[C@@H]1O [L-Ins1, 4,5P3]
competition of GST-mDab1 PTB binding to LUVs containing PtdIns4,5P2 ([1]; competitor at 100 μM): not

Compound: O=P(O)(O)Oc1ccccc1 [phenylphosphate]
binding of the 50-65 kDa proteins to mDab1 PTB in presence of competitor [2]: not affected
binding of the 120 and 40 kDa phosphotyrosyl proteins to mDab1 PTB in presence of competitor [2]: reduced significantly

Compound: N[C@@H](COP(=O)(O)O)C(=O)O [phosphoserine]
binding of the 50-65 kDa proteins to mDab1 PTB in presence of competitor [2]: not affected
binding of the 120 and 40 kDa phosphotyrosyl proteins to mDab1 PTB in presence of competitor [2]: to a less extent

Compound: IIENPQY [SEQ ID NO:33]
binding of mDab1 PTB domain to peptide [3]: failed to interact

Compound: NFDNPVY [SEQ ID NO:29]
binding of mDab1 PTB domain to peptide [3]: bound

Compound: NVGNPEY [SEQ ID NO:32]
binding of mDab1 PTB domain to peptide [3]: failed to interact

Continued, values first:

binding of mDab1 PTB domain to peptide [3]: better than the other
Compound: MFENPLY [SEQ ID NO:30]

binding of mDab1 PTB domain to peptide [3]: bound
Compound: NFTNPVY [SEQ ID NO:28, peptide with the more carboxy-terminal NPXY motif of LRP]

binding of mDab1 PTB domain to peptide [3]: failed to interact
Compound: NSSNPEY [SEQ ID NO:34]
